Data reported in patent EP4722207A1, “OXOISOINDOLINYL-SUBSTITUTED TETRAHYDROPYRIMIDINEDIONE DERIVATIVE AND USE THEREOF” (Gluetacs Therapeutics (Shanghai) Co., Ltd., priority 2023, dated 2024).

Experiments:
Assay type in all cases: cell-based
[1] = target: T1, CK1α (Homo sapiens, UniProt P48729+Q96SW2); assay: Western-blot assay, substrate protein degradation in hPBMCs: CK1α; conditions: for CK1α substrate protein remaining %: compounds at 50 nM and 500 nM, 24 hours; for substrate protein remaining % CK1α: 24 hours of compound treatment, 50 nM and 500 nM
T1 construct: effects of the compounds of the present disclosure on the expression of target proteins in cells; endogenous in cells; host or cells: human PBMCs (hPBMCs)

[2] = target: T2, IKZF2 (Homo sapiens, UniProt Q96SW2+Q9UKS7); assay: Western-blot assay, substrate protein degradation in hPBMCs: IKZF2; conditions: for IKZF2 substrate protein remaining %: compounds at 50 nM and 500 nM, 24 hours; for substrate protein remaining % IKZF2: 24 hours of compound treatment, 50 nM and 500 nM
T2 construct: effects of the compounds of the present disclosure on the expression of target proteins in cells; endogenous in cells; host or cells: human PBMCs (hPBMCs)

[3] = target: T3, IKZF1 (Homo sapiens, UniProt Q13422+Q96SW2); assay: Western-blot assay, substrate protein degradation in hPBMCs: IKZF1; conditions: for IKZF1 substrate protein remaining %: compounds at 50 nM and 500 nM, 24 hours; for substrate protein remaining % IKZF1: 24 hours of compound treatment, 50 nM and 500 nM
T3 construct: effects of the compounds of the present disclosure on the expression of target proteins in cells; endogenous in cells; host or cells: human PBMCs (hPBMCs)

[4] = target: T4, WEE1 (Homo sapiens, UniProt P30291+Q96SW2); assay: Western-blot assay, substrate protein degradation in hPBMCs: WEE1; conditions: for WEE1 substrate protein remaining %: compounds at 50 nM and 500 nM, 24 hours; for substrate protein remaining % WEE1: 24 hours of compound treatment, 50 nM and 500 nM
T4 construct: effects of the compounds of the present disclosure on the expression of target proteins in cells; endogenous in cells; host or cells: human PBMCs (hPBMCs)

[5] = target: T5, IKZF3 (Homo sapiens, UniProt Q96SW2+Q9UKT9); assay: Western-blot assay, substrate protein degradation in hPBMCs: IKZF3; conditions: for IKZF3 substrate protein remaining %: compounds at 50 nM and 500 nM, 24 hours; for substrate protein remaining % IKZF3: 24 hours of compound treatment, 50 nM and 500 nM
T5 construct: effects of the compounds of the present disclosure on the expression of target proteins in cells; endogenous in cells; host or cells: human PBMCs (hPBMCs)

[6] = target: T6, GSPT1 (Homo sapiens, UniProt P15170+Q96SW2); assay: Western-blot assay, substrate protein degradation in hPBMCs: GSPT1; conditions: for GSPT1 substrate protein remaining %: compounds at 50 nM and 500 nM, 24 hours; for substrate protein remaining % GSPT1: 24 hours of compound treatment, 50 nM and 500 nM
T6 construct: effects of the compounds of the present disclosure on the expression of target proteins in cells; endogenous in cells; host or cells: human PBMCs (hPBMCs)
T6 sequence (P15170 whole entry): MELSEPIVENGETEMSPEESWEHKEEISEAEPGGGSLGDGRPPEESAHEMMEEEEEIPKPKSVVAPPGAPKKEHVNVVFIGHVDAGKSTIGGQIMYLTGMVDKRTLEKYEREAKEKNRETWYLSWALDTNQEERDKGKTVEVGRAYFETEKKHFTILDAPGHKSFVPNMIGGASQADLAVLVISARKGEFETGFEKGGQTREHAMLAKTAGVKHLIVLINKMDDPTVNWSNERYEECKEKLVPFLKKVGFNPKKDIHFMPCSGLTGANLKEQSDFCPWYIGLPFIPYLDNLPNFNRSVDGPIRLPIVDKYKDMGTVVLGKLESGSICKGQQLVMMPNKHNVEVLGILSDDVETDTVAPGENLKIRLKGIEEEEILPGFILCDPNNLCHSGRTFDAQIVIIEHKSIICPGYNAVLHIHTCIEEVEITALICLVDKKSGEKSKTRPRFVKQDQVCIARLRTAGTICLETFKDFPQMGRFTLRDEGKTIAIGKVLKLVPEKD
T6 sequence (Q96SW2 whole entry): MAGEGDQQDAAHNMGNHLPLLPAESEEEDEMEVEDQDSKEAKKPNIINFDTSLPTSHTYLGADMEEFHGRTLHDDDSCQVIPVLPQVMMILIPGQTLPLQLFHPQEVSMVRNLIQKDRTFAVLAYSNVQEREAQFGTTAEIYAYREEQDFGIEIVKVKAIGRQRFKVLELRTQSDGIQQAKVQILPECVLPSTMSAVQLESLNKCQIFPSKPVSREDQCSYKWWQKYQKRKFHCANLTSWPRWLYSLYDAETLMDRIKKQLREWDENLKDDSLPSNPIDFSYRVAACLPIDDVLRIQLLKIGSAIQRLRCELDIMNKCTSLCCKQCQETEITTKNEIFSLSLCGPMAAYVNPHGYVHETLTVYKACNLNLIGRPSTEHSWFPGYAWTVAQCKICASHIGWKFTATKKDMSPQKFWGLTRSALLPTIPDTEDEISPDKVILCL
T6 sequence (Q16531 whole entry partner): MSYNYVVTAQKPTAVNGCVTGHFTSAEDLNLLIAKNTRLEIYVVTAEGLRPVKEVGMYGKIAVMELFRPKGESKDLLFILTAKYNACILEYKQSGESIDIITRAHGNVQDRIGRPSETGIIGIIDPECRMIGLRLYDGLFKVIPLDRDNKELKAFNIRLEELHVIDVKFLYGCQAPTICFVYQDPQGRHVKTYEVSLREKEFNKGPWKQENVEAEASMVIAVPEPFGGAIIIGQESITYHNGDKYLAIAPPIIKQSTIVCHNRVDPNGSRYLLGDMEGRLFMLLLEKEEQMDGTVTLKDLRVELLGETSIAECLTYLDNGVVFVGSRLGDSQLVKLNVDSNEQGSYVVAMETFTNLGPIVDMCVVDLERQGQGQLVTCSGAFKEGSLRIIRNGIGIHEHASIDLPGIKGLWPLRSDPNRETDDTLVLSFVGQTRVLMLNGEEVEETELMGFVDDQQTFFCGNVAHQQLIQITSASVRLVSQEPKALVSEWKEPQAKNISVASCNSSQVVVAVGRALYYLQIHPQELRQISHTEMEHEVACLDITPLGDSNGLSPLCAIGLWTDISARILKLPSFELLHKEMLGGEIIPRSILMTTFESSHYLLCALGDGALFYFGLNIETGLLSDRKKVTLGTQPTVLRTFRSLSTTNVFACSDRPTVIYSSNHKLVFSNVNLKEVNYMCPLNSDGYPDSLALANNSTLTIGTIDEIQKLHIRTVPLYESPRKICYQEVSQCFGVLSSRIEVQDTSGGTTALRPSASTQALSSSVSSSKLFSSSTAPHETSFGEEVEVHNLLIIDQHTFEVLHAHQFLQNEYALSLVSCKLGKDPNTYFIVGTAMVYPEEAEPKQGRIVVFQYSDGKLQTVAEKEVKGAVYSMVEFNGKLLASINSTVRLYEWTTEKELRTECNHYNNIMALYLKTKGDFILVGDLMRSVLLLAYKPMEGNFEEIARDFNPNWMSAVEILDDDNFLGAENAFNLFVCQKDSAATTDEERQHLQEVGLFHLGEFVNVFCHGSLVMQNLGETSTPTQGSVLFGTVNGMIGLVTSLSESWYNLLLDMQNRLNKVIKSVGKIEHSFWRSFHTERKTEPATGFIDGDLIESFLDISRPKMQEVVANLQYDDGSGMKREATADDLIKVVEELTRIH

T5 sequence (Q9UKT9 whole entry): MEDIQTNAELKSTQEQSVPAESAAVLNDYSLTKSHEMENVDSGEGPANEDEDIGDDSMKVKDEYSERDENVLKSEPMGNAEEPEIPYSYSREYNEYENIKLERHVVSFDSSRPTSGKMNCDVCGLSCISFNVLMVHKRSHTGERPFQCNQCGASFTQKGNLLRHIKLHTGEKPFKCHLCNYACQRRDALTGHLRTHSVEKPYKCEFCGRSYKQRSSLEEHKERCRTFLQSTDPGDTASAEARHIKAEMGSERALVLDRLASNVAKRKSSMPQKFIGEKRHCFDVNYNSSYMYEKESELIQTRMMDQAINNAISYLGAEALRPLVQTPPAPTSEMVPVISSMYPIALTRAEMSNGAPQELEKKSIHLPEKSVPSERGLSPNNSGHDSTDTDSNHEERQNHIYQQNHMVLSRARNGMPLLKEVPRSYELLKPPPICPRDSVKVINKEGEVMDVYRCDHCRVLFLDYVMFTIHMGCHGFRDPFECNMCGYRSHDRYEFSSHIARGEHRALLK
T5 sequence (Q96SW2 whole entry): as the sequence (Q96SW2 whole entry) above
T5 sequence (Q16531 whole entry partner): as the sequence (Q16531 whole entry partner) above
T2 sequence (Q9UKS7 whole entry): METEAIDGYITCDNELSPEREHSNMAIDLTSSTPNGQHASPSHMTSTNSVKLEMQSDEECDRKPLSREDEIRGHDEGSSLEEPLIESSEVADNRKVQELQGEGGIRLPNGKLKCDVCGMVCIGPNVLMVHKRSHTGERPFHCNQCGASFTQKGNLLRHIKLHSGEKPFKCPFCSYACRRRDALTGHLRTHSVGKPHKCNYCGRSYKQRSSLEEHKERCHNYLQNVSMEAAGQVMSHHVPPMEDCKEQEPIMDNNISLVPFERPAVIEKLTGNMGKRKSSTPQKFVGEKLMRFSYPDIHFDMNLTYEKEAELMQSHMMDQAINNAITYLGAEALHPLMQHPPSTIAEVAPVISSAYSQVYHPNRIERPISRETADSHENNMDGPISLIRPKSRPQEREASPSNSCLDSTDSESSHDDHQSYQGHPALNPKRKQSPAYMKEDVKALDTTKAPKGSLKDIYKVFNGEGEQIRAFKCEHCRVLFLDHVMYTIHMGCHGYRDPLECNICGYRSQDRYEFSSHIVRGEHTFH
T2 sequence (Q96SW2 whole entry): as the sequence (Q96SW2 whole entry) above
T2 sequence (Q16531 whole entry partner): as the sequence (Q16531 whole entry partner) above
T1 sequence (P48729 whole entry): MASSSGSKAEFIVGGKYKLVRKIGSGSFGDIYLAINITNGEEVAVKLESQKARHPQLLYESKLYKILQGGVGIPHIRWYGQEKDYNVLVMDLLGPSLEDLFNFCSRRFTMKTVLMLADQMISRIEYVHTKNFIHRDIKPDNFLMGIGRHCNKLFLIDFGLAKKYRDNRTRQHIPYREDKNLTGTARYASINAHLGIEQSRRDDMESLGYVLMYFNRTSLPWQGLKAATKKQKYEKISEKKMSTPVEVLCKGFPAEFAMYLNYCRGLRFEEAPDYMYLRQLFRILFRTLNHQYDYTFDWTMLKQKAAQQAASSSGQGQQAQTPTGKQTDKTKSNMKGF
T1 sequence (Q96SW2 whole entry): as the sequence (Q96SW2 whole entry) above
T1 sequence (Q16531 whole entry partner): as the sequence (Q16531 whole entry partner) above
T3 sequence (Q13422 whole entry): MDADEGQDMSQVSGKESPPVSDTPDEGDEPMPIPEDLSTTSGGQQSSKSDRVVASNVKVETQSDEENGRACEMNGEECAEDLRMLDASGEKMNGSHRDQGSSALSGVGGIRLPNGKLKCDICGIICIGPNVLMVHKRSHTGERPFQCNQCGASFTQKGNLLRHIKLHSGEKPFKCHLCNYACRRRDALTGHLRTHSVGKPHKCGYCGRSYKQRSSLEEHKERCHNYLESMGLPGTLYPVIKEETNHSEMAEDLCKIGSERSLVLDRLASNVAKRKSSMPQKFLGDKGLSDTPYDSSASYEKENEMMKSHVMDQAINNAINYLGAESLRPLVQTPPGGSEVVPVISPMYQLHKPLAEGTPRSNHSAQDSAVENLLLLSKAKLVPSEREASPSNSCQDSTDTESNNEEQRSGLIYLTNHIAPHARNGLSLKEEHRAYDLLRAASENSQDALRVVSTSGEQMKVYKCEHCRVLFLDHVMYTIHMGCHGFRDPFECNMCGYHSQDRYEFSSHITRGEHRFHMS
T3 sequence (Q96SW2 whole entry): as the sequence (Q96SW2 whole entry) above
T3 sequence (Q16531 whole entry partner): as the sequence (Q16531 whole entry partner) above

With CC1(C)CCC(CN2CCN(Cc3ccc4c(c3)C(=O)N(N3CCC(=O)NC3=O)C4=O)CC2)=C(c2ccc(Cl)cc2)C1 [GT-05180, 5-((4-((4'-chloro-5,5-dimethyl-3,4,5,6-tetrahydro-[1,1'-biphenyl]-2-yl)methyl)piperazin-1-yl)methyl)-2-(2,4-dioxotetrahydropyrimidin-1(2H)-yl)isoindoline-1,3-dione] the “CK1α substrate protein remaining %” value [1] was “B ("B" is defined as 80%< substrate protein remaining %≤ 100%)”, the “IKZF2 substrate protein remaining %” value [2] was “B ("B" is defined as 80%< substrate protein remaining %≤ 100%)” and the “IKZF1 substrate protein remaining %” value [3] was “B ("B" is defined as 80%< substrate protein remaining %≤ 100%)”. For the same molecule, the “WEE1 substrate protein remaining %” value [4] was “A ("A" is defined as 0% ≤ substrate protein remaining % ≤ 80%)”, the “IKZF3 substrate protein remaining %” value [5] was “B ("B" is defined as 80%< substrate protein remaining %≤ 100%)” and the “GSPT1 substrate protein remaining %” value [6] was “B ("B" is defined as 80%< substrate protein remaining %≤ 100%)”.

With O=C1CCN(N2Cc3cc(CN4C5CCC4CN(c4cccc(Cl)c4Cl)C5)ccc3C2=O)C(=O)N1 [GT-07430, 1-(5-((3-(2,3-dichlorophenyl)-3,8-diazabicyclo[3.2.1]octan-8-yl)methyl)-1-oxoisoindolin-2-yl)dihydropyrimidine-2,4(1H,3H)-dione] the “substrate protein remaining % CK1α” value [1] was “A (0% ≤ substrate protein remaining % ≤ 80%)”, the “substrate protein remaining % IKZF2” value [2] was “B (80%< substrate protein remaining %≤ 100%)” and the “substrate protein remaining % IKZF1” value [3] was “A (0% ≤ substrate protein remaining % ≤ 80%)”. The “substrate protein remaining % WEE1” value [4] was “B (80%< substrate protein remaining %≤ 100%)”, the “substrate protein remaining % IKZF3” value [5] was “B (80%< substrate protein remaining %≤ 100%)” and the “substrate protein remaining % GSPT1” value [6] was “A (0% ≤ substrate protein remaining % ≤ 80%)”.

In the case of O=C1CCN(N2C(=O)c3ccc(CN4CCC(c5ccc(Br)cc5)CC4)cc3C2=O)C(=O)N1 [GT-06805, 5-((4-(4-bromophenyl)piperidin-1-yl)methyl)-2-(2,4-dioxotetrahydropyrimidin-1(2H)-yl)isoindoline-1,3-dione], the “CK1α substrate protein remaining %” value [1] is reported as “A ("A" is defined as 0% ≤ substrate protein remaining % ≤ 80%)”, the “IKZF2 substrate protein remaining %” value [2] is reported as “B ("B" is defined as 80%< substrate protein remaining %≤ 100%)” and the “IKZF1 substrate protein remaining %” value [3] is reported as “B ("B" is defined as 80%< substrate protein remaining %≤ 100%)”. For the same molecule, the “WEE1 substrate protein remaining %” value [4] was “B ("B" is defined as 80%< substrate protein remaining %≤ 100%)”, the “IKZF3 substrate protein remaining %” value [5] was “B ("B" is defined as 80%< substrate protein remaining %≤ 100%)” and the “GSPT1 substrate protein remaining %” value [6] was “B ("B" is defined as 80%< substrate protein remaining %≤ 100%)”.

O=C1CCN(N2C(=O)c3ccc(CN4CCC(c5cccc(Br)c5)CC4)cc3C2=O)C(=O)N1 [GT-06804, 5-((4-(3-bromophenyl)piperidin-1-yl)methyl)-2-(2,4-dioxotetrahydropyrimidin-1(2H)-yl)isoindoline-1,3-dione] was tested, and the “CK1α substrate protein remaining %” value [1] was “A ("A" is defined as 0% ≤ substrate protein remaining % ≤ 80%)”, the “IKZF2 substrate protein remaining %” value [2] was “B ("B" is defined as 80%< substrate protein remaining %≤ 100%)” and the “IKZF1 substrate protein remaining %” value [3] was “B ("B" is defined as 80%< substrate protein remaining %≤ 100%)”. For the same molecule, the “WEE1 substrate protein remaining %” value [4] was “B ("B" is defined as 80%< substrate protein remaining %≤ 100%)”, the “IKZF3 substrate protein remaining %” value [5] was “B ("B" is defined as 80%< substrate protein remaining %≤ 100%)” and the “GSPT1 substrate protein remaining %” value [6] was “B ("B" is defined as 80%< substrate protein remaining %≤ 100%)”.

With O=C1CCN(N2Cc3cc(CN4CCN(CC5=C(c6ccc(F)cc6)CCCC5)CC4)ccc3C2=O)C(=O)N1 [GT-07297, 1-(5-((4-((4'-fluoro-3,4,5,6-tetrahydro-[1,1'-biphenyl]-2-yl)methyl)piperazin-1-yl)methyl)-1-oxoisoindolin-2-yl)dihydropyrimidine-2,4(1H,3H)-dione] the “substrate protein remaining % CK1α” value [1] was “A (0% ≤ substrate protein remaining % ≤ 80%)”, the “substrate protein remaining % IKZF2” value [2] was “A (0% ≤ substrate protein remaining % ≤ 80%)” and the “substrate protein remaining % IKZF1” value [3] was “B (80%< substrate protein remaining %≤ 100%)”. For the same molecule, the “substrate protein remaining % WEE1” value [4] was “A (0% ≤ substrate protein remaining % ≤ 80%)”, the “substrate protein remaining % IKZF3” value [5] was “A (0% ≤ substrate protein remaining % ≤ 80%)” and the “substrate protein remaining % GSPT1” value [6] was “A (0% ≤ substrate protein remaining % ≤ 80%)”.

O=C1CCN(N2Cc3cc(CN4CCC(c5ccco5)CC4)ccc3C2=O)C(=O)N1 [GT-07374, 1-(5-((4-(furan-2-yl)piperidin-1-yl)methyl)-1-oxoisoindolin-2-yl)dihydropyrimidine-2,4(1H,3H)-dione] was tested, and the “substrate protein remaining % CK1α” value [1] was “A (0% ≤ substrate protein remaining % ≤ 80%)”, the “substrate protein remaining % IKZF2” value [2] was “B (80%< substrate protein remaining %≤ 100%)” and the “substrate protein remaining % IKZF1” value [3] was “B (80%< substrate protein remaining %≤ 100%)”. For the same molecule, the “substrate protein remaining % WEE1” value [4] was “B (80%< substrate protein remaining %≤ 100%)”, the “substrate protein remaining % IKZF3” value [5] was “B (80%< substrate protein remaining %≤ 100%)” and the “substrate protein remaining % GSPT1” value [6] was “A (0% ≤ substrate protein remaining % ≤ 80%)”.

In the case of O=C1CCN(N2Cc3cc(CN4CCN(c5ccnc(Cl)c5F)CC4)ccc3C2=O)C(=O)N1 [GT-07069, 1-(5-((4-(2-chloro-3-fluoropyridin-4-yl)piperazin-1-yl)methyl)-1-oxoisoindolin-2-yl)dihydropyrimidine-2,4(1H,3H)-dione], the “CK1α substrate protein remaining %” value [1] is reported as “B ("B" is defined as 80%< substrate protein remaining %≤ 100%)”, the “IKZF2 substrate protein remaining %” value [2] is reported as “B ("B" is defined as 80%< substrate protein remaining %≤ 100%)” and the “IKZF1 substrate protein remaining %” value [3] is reported as “B ("B" is defined as 80%< substrate protein remaining %≤ 100%)”. The “WEE1 substrate protein remaining %” value [4] was “A ("A" is defined as 0% ≤ substrate protein remaining % ≤ 80%)”, the “IKZF3 substrate protein remaining %” value [5] was “B ("B" is defined as 80%< substrate protein remaining %≤ 100%)” and the “GSPT1 substrate protein remaining %” value [6] was “B ("B" is defined as 80%< substrate protein remaining %≤ 100%)”.

With O=C1CCN(N2Cc3cc(CN4CCN(c5cncc(Cl)c5Cl)CC4)ccc3C2=O)C(=O)N1 [GT-05436, 1-(5-((4-(4,5-dichloropyridin-3-yl)piperazin-1-yl)methyl)-1-oxoisoindolin-2-yl)dihydropyrimidine-2,4(1H,3H)-dione] the “substrate protein remaining % CK1α” value [1] was “B (80%< substrate protein remaining %≤ 100%)”, the “CK1α substrate protein remaining %” value [1] was “B ("B" is defined as 80%< substrate protein remaining %≤ 100%)” and the “substrate protein remaining % IKZF2” value [2] was “B (80%< substrate protein remaining %≤ 100%)”. For the same molecule, the “IKZF2 substrate protein remaining %” value [2] was “B ("B" is defined as 80%< substrate protein remaining %≤ 100%)”, the “substrate protein remaining % IKZF1” value [3] was “B (80%< substrate protein remaining %≤ 100%)” and the “IKZF1 substrate protein remaining %” value [3] was “B ("B" is defined as 80%< substrate protein remaining %≤ 100%)”. For the same molecule, the “substrate protein remaining % WEE1” value [4] was “A (0% ≤ substrate protein remaining % ≤ 80%)”, the “WEE1 substrate protein remaining %” value [4] was “A ("A" is defined as 0% ≤ substrate protein remaining % ≤ 80%)” and the “substrate protein remaining % IKZF3” value [5] was “B (80%< substrate protein remaining %≤ 100%)”. For the same molecule, the “IKZF3 substrate protein remaining %” value [5] was “B ("B" is defined as 80%< substrate protein remaining %≤ 100%)”, the “substrate protein remaining % GSPT1” value [6] was “A (0% ≤ substrate protein remaining % ≤ 80%)” and the “GSPT1 substrate protein remaining %” value [6] was “A ("A" is defined as 0% ≤ substrate protein remaining % ≤ 80%)”.

Cc1cc(C2CCN(Cc3ccc4c(c3)CN(N3CCC(=O)NC3=O)C4=O)CC2)cs1 [GT-07373, 1-(5-((4-(5-methylthiophen-3-yl)piperidin-1-yl)methyl)-1-oxoisoindolin-2-yl)dihydropyrimidine-2,4(1H,3H)-dione] was tested, and the “substrate protein remaining % CK1α” value [1] was “B (80%< substrate protein remaining %≤ 100%)”, the “substrate protein remaining % IKZF2” value [2] was “B (80%< substrate protein remaining %≤ 100%)” and the “substrate protein remaining % IKZF1” value [3] was “B (80%< substrate protein remaining %≤ 100%)”. For the same molecule, the “substrate protein remaining % WEE1” value [4] was “B (80%< substrate protein remaining %≤ 100%)”, the “substrate protein remaining % IKZF3” value [5] was “A (0% ≤ substrate protein remaining % ≤ 80%)” and the “substrate protein remaining % GSPT1” value [6] was “A (0% ≤ substrate protein remaining % ≤ 80%)”.

O=C1CCN(N2Cc3cc(CN4CCN(c5c(Cl)cncc5Cl)CC4)ccc3C2=O)C(=O)N1 [GT-07032, 1-(5-((4-(3,5-dichloropyridin-4-yl)piperazin-1-yl)methyl)-1-oxoisoindolin-2-yl)dihydropyrimidine-2,4(1H,3H)-dione] was tested, and the “CK1α substrate protein remaining %” value [1] was “B ("B" is defined as 80%< substrate protein remaining %≤ 100%)”, the “IKZF2 substrate protein remaining %” value [2] was “B ("B" is defined as 80%< substrate protein remaining %≤ 100%)” and the “IKZF1 substrate protein remaining %” value [3] was “B ("B" is defined as 80%< substrate protein remaining %≤ 100%)”. The “WEE1 substrate protein remaining %” value [4] was “B ("B" is defined as 80%< substrate protein remaining %≤ 100%)”, the “IKZF3 substrate protein remaining %” value [5] was “B ("B" is defined as 80%< substrate protein remaining %≤ 100%)” and the “GSPT1 substrate protein remaining %” value [6] was “A ("A" is defined as 0% ≤ substrate protein remaining % ≤ 80%)”.

O=C1CCN(N2Cc3cc(CN4CCN(c5nccc(Cl)c5F)CC4)ccc3C2=O)C(=O)N1 [GT-05358, 1-(5-((4-(4-chloro-3-fluoropyridin-2-yl)piperazin-1-yl)methyl)-1-oxoisoindolin-2-yl)dihydropyrimidine-2,4(1H,3H)-dione] was tested, and the “CK1α substrate protein remaining %” value [1] was “B ("B" is defined as 80%< substrate protein remaining %≤ 100%)”, the “IKZF2 substrate protein remaining %” value [2] was “B ("B" is defined as 80%< substrate protein remaining %≤ 100%)” and the “IKZF1 substrate protein remaining %” value [3] was “B ("B" is defined as 80%< substrate protein remaining %≤ 100%)”. For the same molecule, the “WEE1 substrate protein remaining %” value [4] was “B ("B" is defined as 80%< substrate protein remaining %≤ 100%)”, the “IKZF3 substrate protein remaining %” value [5] was “B ("B" is defined as 80%< substrate protein remaining %≤ 100%)” and the “GSPT1 substrate protein remaining %” value [6] was “A ("A" is defined as 0% ≤ substrate protein remaining % ≤ 80%)”.
